Data published in patent publication US10287269B2, “Pyrazolyl pyrimidinone compounds as PDE2 inhibitors” (Merck Sharp & Dohme Corp., priority 2015, dated 2019).

target: T1, Rhesus PDE2A3 (Macaca mulatta, UniProt B3VTJ2); experiment: PDE2 fluorescence polarization (IMAP FP) inhibition assay, rhesus enzyme; type: biochemical, rhesus macaque; conditions: Lab A; read-out: Rhesus PDE2 Ki (nM) Lab A
T1 construct: made in house; host or cells: AD293 cells, transient transfection, pcDNA3.3-TOPO; lysate supernatant used as enzyme
T1 sequence (B3VTJ2 1-941): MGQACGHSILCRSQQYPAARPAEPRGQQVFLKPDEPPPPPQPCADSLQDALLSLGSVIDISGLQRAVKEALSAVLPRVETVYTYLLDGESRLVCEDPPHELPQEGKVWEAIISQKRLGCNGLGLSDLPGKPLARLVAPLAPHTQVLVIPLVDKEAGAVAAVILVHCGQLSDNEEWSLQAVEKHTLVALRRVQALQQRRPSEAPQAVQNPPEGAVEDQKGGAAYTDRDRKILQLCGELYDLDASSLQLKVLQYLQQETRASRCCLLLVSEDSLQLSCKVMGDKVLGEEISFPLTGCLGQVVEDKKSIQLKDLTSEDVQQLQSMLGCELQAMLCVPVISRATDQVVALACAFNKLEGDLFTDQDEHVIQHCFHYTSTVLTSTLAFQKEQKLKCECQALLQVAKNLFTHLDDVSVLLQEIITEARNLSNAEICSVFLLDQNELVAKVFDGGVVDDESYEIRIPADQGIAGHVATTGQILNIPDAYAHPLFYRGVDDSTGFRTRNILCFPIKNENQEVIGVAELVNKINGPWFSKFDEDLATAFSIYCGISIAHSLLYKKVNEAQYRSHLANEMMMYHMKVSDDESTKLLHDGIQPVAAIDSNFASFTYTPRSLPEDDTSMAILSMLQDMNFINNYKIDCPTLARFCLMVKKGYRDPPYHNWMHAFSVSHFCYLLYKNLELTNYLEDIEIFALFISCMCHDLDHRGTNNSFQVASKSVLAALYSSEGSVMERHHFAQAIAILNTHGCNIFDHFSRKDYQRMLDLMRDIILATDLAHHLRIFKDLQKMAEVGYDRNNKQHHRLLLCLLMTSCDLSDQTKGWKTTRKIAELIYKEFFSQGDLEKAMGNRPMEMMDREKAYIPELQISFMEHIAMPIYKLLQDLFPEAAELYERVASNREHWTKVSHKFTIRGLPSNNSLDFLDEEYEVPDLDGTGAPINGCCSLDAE
Method: The activity of the compounds in accordance with the present invention as PDE2 inhibitors may be readily determined using a fluorescence polarization (FP) methodology (Huang, W., et al., J. Biomol Screen, 2002, 7: 215).
In a typical experiment the PDE2 inhibitory activity of the compounds of the present invention was determined in accordance with the following experimental method. Rhesus PDE2A3 was amplified from rhesus macaque brain cDNA (Biochain Institute, Hayward, Calif.) using primers based on human PDE2A sequence (accession NM_002599.3) where the forward primer containing a Kozak consensus was 5′-[…]-3′ and the reverse primer was 5′-[…]-3′. Amplification with Easy-A High-Fidelity PCR cloning enzyme (Stratagene, La Jolla, Calif.) was 95° C. for 2 minutes followed by thirty three cycles of 95° C. for 40 seconds, 52° C. for 30 seconds, and 72° C. for 2 minutes 48 seconds. Final extension was 72° C. for 7 minutes. The PCR product was TA cloned into pcDNA3.3-TOPO (Invitrogen, Carlsbad, Calif.) according to standard protocol. A consensus sequence was developed from multiple clones and then deposited into GenBank (EU812167). AD293 cells (Stratagene, La Jolla, Calif.) with 70-80% confluency were transiently transfected with rhesus PDE2A3/pcDNA3.3-TOPO using Lipofectamine 2000 according to manufacturer specifications (Invitrogen, Carlsbad, Calif.). Cells were harvested 48 hours post-transfection and lysed by sonication (setting 3, 10×5 sec pulses) in a buffer containing 20 mM HEPES pH 7.4, 1 mM EDTA and Complete Protease Inhibitor Cocktail Tablets (Roche, Indianapolis, Ind.). Lysate was collected by centrifugation at 75,000×g for 20 minutes at 4° C. and supernatant utilized for evaluation of PDE2 activity. The fluorescence polarization assay for cyclic nucleotide phosphodiesterases was performed using an IMAP® FP kit supplied by Molecular Devices, Sunnyvale, Calif. (product # R8139). […] Assays were performed at room temperature in 384-well microtiter plates with an incubation volume of 20.2 μL. Solutions of test compounds were prepared in DMSO and serially diluted with DMSO to yield 8 μL of each of 10 solutions differing by 3-fold in concentration, at 32 serial dilutions per plate. […] 0% of inhibition is determined by using DMSO (1% final concentrations).
A Labcyte Echo 555 (Labcyte, Sunnyvale, Calif.) is used to dispense 200 nL from each well of the titration plate to the 384 well assay plate. Ten microliters of a solution of enzyme (1/2000 final dilution from aliquots; sufficient to produce 20% substrate conversion) was added to the assay plate. Next 10 uL of a separate solution of the substrate FAM-labeled cAMP (50 nM final concentration product # R7506 from Molecular Devices) and the activator cGMP (1 uM final concentration), prepared in the assay buffer (10 mM Tris HCl, pH 7.2, 10 mM MgCl2, 0.05% NaN3 0.01% Tween-20, and 1 mM DTT) was added to the assay plate and shaken to mix. The reaction is allowed to proceed at room temperature for 60 minutes. A binding solution is then made from the kit components, comprised of 80% Solution A, 20% Solution B and binding reagent at a volume of 1/600 the total binding solution. The enzymatic reaction is stopped by addition of 60 μl, of the binding solution to each well of the assay plates and the plates are sealed and shaken for 30 seconds. The plate was incubated at room temperature for at least one hour prior to determining the fluorescence polarization (FP). The parallel and perpendicular fluorescence of each well of the plate was measured using a Tecan Genios Pro plate reader (Tecan, Switzerland) or Perkin Elmer EnVision™ plate reader (Waltham, Mass.). Fluorescence polarization (mP) was calculated from the parallel (S) and perpendicular (P) fluorescence of each sample well and the analogous values for the median control well, containing only substrate (So and Po), using the following equation: Polarization (mP)=1000*(S/So−P/Po)/(S/So+P/Po).

| Compound | Ki [nM] |
| --- | --- |
| COCc1ccc(C(C)n2cc(-c3cc(=O)[nH]c(C)n3)cn2)c(Cl)c1 (single isomer, unassigned) [Example 104, (S)- or (R)-6-(1-(1-(2-chloro-4-(methoxymethyl)phenyl)ethyl)-1H-pyrazol-4-yl)-2-methylpyrimidin-4(3H)-one] | > 2970 |
| Cc1nc(-c2cnn(C(C)c3ccc(C(F)(F)F)cc3C(F)(F)F)c2)cc(=O)[nH]1 (single isomer, unassigned) [Example 144, (R)- or (S)-6-(1-(1-(2,4-bis(trifluoromethyl)phenyl)ethyl)-1H-pyrazol-4-yl)-2-methylpyrimidin-4(3H)-one] | 397 |
| Cc1nc(-c2cnn(C(C)c3ccc(C(F)(F)F)cc3C(F)(F)F)c2)cc(=O)[nH]1 (single isomer, unassigned) [Example 145, (S)- or (R)-6-(1-(1-(2,4-bis(trifluoromethyl)phenyl)ethyl)-1H-pyrazol-4-yl)-2-methylpyrimidin-4(3H)-one] | 6810 |
| Cc1ccc(C(C)n2cc(-c3cc(=O)[nH]c(C)n3)cn2)c(Cl)c1 (single isomer, unassigned) [Example 149, (S)- or (R)-6-(1-(1-(2-chloro-4-methylphenyl)ethyl)-1H-pyrazol-4-yl)-2-methylpyrimidin-4(3H)-one] | 954 |
| Cc1ccc(C(C)n2cc(-c3cc(=O)[nH]c(C)n3)cn2)c(F)c1 (single isomer, unassigned) [Example 150, (R)- or (S)-6-(1-(1-(2-fluoro-4-methylphenyl)ethyl)-1H-pyrazol-4-yl)-2-methylpyrimidin-4(3H)-one] | 695 |
| Cc1ccc(C(C)n2cc(-c3cc(=O)[nH]c(C)n3)cn2)c(F)c1 (single isomer, unassigned) [Example 151, (S)- or (R)-6-(1-(1-(2-fluoro-4-methylphenyl)ethyl)-1H-pyrazol-4-yl)-2-methylpyrimidin-4(3H)-one] | 218 |

Other lines, results leading:

| Ki [nM] | Compound |
| --- | --- |
| 384 | CCc1ccc(C(C)n2cc(-c3cc(=O)[nH]c(C)n3)cn2)c(Cl)c1 (single isomer, unassigned) [Example 100, (S)- or (R)-6-(1-(1-(2-chloro-4-ethylphenyl)ethyl)-1H-pyrazol-4-yl)-2-methylpyrimidin-4(3H)-one] |
| 212 | CCc1ccc(C(C)n2cc(-c3cc(=O)[nH]c(C)n3)cn2)c(F)c1 (single isomer, unassigned) [Example 102, (S)- or (R)-6-(1-(1-(4-ethyl-2-fluorophenyl)ethyl)-1H-pyrazol-4-yl)-2-methylpyrimidin-4(3H)-one] |
| 106 | COCc1ccc(C(C)n2cc(-c3cc(=O)[nH]c(C)n3)cn2)c(Cl)c1 (single isomer, unassigned) [Example 103, (R)- or (S)-6-(1-(1-(2-chloro-4-(methoxymethyl)phenyl)ethyl)-1H-pyrazol-4-yl)-2-methylpyrimidin-4(3H)-one] |
| 19300 | Cc1nc(-n2cc(CN3CCC(C(F)(F)F)CC3)cn2)cc(=O)[nH]1 [Example 32, 2-Methyl-6-(4-((4-(trifluoromethyl)piperidin-1-yl)methyl)-1H-pyrazol-1-yl)pyrimidin-4(3H)-one] |

same assay, conditions: Lab B; read-out: Rhesus PDE2 Ki (nM) Lab B

| Compound | Ki [nM] |
| --- | --- |
| Cc1nc(-c2cnn(C(C)c3ccc(OC(F)(F)F)cc3)c2)cc(=O)[nH]1 (single isomer, unassigned) [Example 128, (S)- or (R)-2-methyl-6-(1-(1-(4-(trifluoromethoxy)phenyl)ethyl)-1H-pyrazol-4-yl)pyrimidin-4(3H)-one] | 588 |
| Cc1nc(-c2cc(C(C)c3ccc(C(F)(F)F)cc3)nn2C)cc(=O)[nH]1 (single isomer, unassigned) [Example 132, (S)- or (R)-2-methyl-6-(1-methyl-3-(1-(4-(trifluoromethyl)phenyl)ethyl)-1H-pyrazol-5-yl)pyrimidin-4(3H)-one] | > 1000 |
| Cc1nc(-n2cc(C(C)c3ccc4c(c3)OCC4(C)C)cn2)cc(=O)[nH]1 (stereo not shown) [Example 47, 6-(4-(1-(3,3-dimethyl-2,3-dihydrobenzofuran-6-yl)ethyl)-1H-pyrazol-1-yl)-2-methylpyrimidin-4(3H)-one] | 1240 |

Next, values leading:

| Ki [nM] | Compound |
| --- | --- |
| > 1000 | Cc1nc(-c2cc(C(C)c3ccc(C(F)(F)F)cc3)nn2C)cc(=O)[nH]1 (single isomer, unassigned) [Example 131, (R)- or (S)-2-methyl-6-(1-methyl-3-(1-(4-(trifluoromethyl)phenyl)ethyl)-1H-pyrazol-5-yl)pyrimidin-4(3H)-one] |
| 488 | CNC(c1ccc(C(F)(F)F)cc1)c1cnn(-c2cc(=O)[nH]c(C)n2)c1 (stereo not shown) [Example 31, 2-Methyl-6-(4-((methylamino)(4-(trifluoromethyl)phenyl)methyl)-1H-pyrazol-1-yl)pyrimidin-4(3H)-one] |
| 49300 | Cc1nc(-n2cc(CN3CCC(C(F)(F)F)CC3)cn2)cc(=O)[nH]1 [Example 32, 2-Methyl-6-(4-((4-(trifluoromethyl)piperidin-1-yl)methyl)-1H-pyrazol-1-yl)pyrimidin-4(3H)-one] |
| 303 | Cc1nc(-n2cc(C(C)c3ccc(C4CCC4)cc3)cn2)cc(=O)[nH]1 (stereo not shown) [Example 38, 6-(4-(1-(4-cyclobutylphenyl)ethyl)-1H-pyrazol-1-yl)-2-methylpyrimidin-4(3H)-one] |
| 7300 | COCCc1ccc(C(C)c2cnn(-c3cc(=O)[nH]c(C)n3)c2)cc1 (stereo not shown) [Example 41, 6-(4-(1-(4-(2-methoxyethyl)phenyl)ethyl)-1H-pyrazol-1-yl)-2-methylpyrimidin-4(3H)-one] |
| 2620 | Cc1nc(-n2cc(C(C)c3ccc4c(c3)CCOC4)cn2)cc(=O)[nH]1 (stereo not shown) [Example 42, 6-(4-(1-(isochroman-6-yl)ethyl)-1H-pyrazol-1-yl)-2-methylpyrimidin-4(3H)-one] |
| 313 | CCCc1ccc(C(C)c2cnn(-c3cc(=O)[nH]c(C)n3)c2)cc1 (stereo not shown) [Example 43, 2-methyl-6-(4-(1-(4-propylphenyl)ethyl)-1H-pyrazol-1-yl)pyrimidin-4(3H)-one] |
| 411 | Cc1nc(-n2cc(C(C)c3ccc(C(C)(C)C)cc3)cn2)cc(=O)[nH]1 (stereo not shown) [Example 45, 6-(4-(1-(4-(tert-butyl)phenyl)ethyl)-1H-pyrazol-1-yl)-2-methylpyrimidin-4(3H)-one] |
| 2480 | Cc1nc(-n2cc(C(C)c3ccc4c(c3)COCC4)cn2)cc(=O)[nH]1 (stereo not shown) [Example 46, 6-(4-(1-(isochroman-7-yl)ethyl)-1H-pyrazol-1-yl)-2-methylpyrimidin-4(3H)-one] |
